Counter-ions that a name gives are not always drawn. Like-named read-outs stand apart in the source and are kept apart here.
How the values were obtained:
EGFR = biological target: T1, EGFR (Homo sapiens, UniProt P00533); experiment: EGFR in-cell Western (ICW) screening protocol (EGFR inhibition assay); type: cell-based; parameters: ICW 1 / ICW 2 / ICW Avg: unit not given here; details: ICW assay; for ICW Avg: average of runs 1 and 2; for ICW 1: run 1; for ICW 2: run 2
T1 construct: host or cells: A431
T1 sequence (P00533 25-1210): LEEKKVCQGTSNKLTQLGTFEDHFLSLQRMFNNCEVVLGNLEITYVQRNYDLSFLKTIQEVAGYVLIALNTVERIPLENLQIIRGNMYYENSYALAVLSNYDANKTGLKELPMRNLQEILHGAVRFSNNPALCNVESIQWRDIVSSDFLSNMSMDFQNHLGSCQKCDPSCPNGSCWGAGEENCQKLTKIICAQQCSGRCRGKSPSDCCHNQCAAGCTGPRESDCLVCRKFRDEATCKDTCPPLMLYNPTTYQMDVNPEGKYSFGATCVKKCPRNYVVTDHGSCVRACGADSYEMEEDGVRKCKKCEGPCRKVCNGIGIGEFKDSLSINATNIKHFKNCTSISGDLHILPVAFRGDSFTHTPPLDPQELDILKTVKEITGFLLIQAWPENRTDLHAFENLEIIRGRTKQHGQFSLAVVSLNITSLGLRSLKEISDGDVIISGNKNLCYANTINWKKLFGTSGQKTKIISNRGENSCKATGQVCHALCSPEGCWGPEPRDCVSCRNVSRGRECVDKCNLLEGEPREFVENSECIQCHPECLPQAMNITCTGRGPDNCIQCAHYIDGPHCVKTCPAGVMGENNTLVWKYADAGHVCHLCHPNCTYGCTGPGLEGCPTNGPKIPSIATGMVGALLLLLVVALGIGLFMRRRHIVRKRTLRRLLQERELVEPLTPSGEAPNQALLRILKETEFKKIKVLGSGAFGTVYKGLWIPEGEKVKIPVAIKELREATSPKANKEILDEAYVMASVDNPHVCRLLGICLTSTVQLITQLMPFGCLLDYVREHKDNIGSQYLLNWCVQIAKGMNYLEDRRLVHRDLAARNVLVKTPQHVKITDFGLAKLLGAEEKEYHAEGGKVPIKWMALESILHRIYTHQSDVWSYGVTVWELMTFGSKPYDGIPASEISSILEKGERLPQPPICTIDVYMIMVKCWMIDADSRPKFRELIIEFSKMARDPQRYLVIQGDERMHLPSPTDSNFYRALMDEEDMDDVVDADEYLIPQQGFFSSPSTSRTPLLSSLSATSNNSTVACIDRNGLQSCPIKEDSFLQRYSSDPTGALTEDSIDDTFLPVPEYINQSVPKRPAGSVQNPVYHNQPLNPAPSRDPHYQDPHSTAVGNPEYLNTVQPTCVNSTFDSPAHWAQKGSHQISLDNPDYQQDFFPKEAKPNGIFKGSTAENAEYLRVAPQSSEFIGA
Procedure: The following example describes general EGFR in-cell Western (ICW) screening protocol. Methods are according to Chen et al. (2005) Analytical Biochemistry 338, 136-142 (incorporated herein by reference), except as otherwise noted.
Cell Plates: A431 cells (ATCC # CRL-1555) were grown in Dulbecco's Modified Eagle Medium (DMEM; ATCC #30-2002) supplemented with 10% fetal bovine serum, 105 units/ml pen/strep (Invitrogen #15140155) and 2.1 mM L-glutamine (ATCC #30-2214). Cells were seeded into 96 well tissue culture plates (BD Falcon #353948) at a density of 30,000 cells per well and incubated at 37° C. with 5% CO2 overnight. Two cell plates were prepared for each compound plate.
Serum Starvation: The cells were serum starved prior to compound addition. The media was removed by aspiration and the cells washed with PBS (200 μl/well; Invitrogen #20012-027). The PBS was removed by aspiration and replaced with 200 μl of DMEM (ATCC #30-2002) supplemented with 105 units/ml pen/strep (Invitrogen #15140155) and 2.1 mM 1-glutamine (ATCC #30-2214). The cell plates were incubated at 37° C./5% CO2 for 2 hours.
Compound Plate Preparation: The test compounds were solvated in 100% DMSO (Sigma #472301-2L) at a concentration of 25 mM. Compounds found not to be completely soluble in 100% DMSO at 25 mM were diluted to 10 mM with 100% DMSO and TFA (Fluka #91699) added to a final concentration of 0.2%. 40 μl of test compound was added to the appropriate well of a 96 well plate (Falcon #351190). As controls, 6 μM EGFR kinase inhibitor PD168393 (EMD/Calbiochem #513033) in 100% DMSO and DMSO alone were added to various wells. Prepared compound plates were stored at RT prior to use and at 4° C. long term.
Compound Dilution Plate Preparation: 250 μl of DMEM supplemented with 1 mg/ml BSA (Sigma A3059-10G) was added to the appropriate wells of a 96 well plate to prepare the compound dilution plates. Using a multichannel pipettor, 1.25 μl of compound from the compound plate was transferred into the compound dilution plate.
Compound Addition: The starve media was removed from the cell plates by aspiration. Using a multichannel pipettor, the compound dilution plates were mixed by pipetting up and down three times. 50 μl of mixed, diluted compound was added to each of two rows/columns on each of two cell plates. The cell plates with compound were incubated at 37° C./5% CO2 for 4 hours.
EGF Addition: 20 ng/ml EGF (Upstate #01-107) was prepared in DMEM supplemented with 1 mg/ml BSA. 50 μl of 20 or 0 ng/ml EGF was added to the appropriate wells without the removal of compound. The compound and EGF were mixed by pipetting up and down three times. The plates were incubated at 37° C./5% CO2 for 10 min. In some screening assays the final concentration of EGF used for simulation was 6.6, or 12.5 ng/ml rather than 10 ng/ml.
Fixation and Triton Washing: The EGF+compound was removed by aspiration and 150 μl of freshly prepared Fixation Solution (1×PBS, Sigma P3813-10PK, and 4% Formaldehyde, Pierce #28908) was immediately added. The plates were incubated at RT for 20 min without shaking. The Fixation Solution was removed by aspiration and the plates washed four times with 200 μl each of Triton Wash Solution (1×PBS, Sigma P3813-10PK, and 0.1% Triton X-100, T8787-50ML) for 5 min with gentle shaking.
Blocking and Probing: Following the last Triton Wash, the plates were blocked for 1.5 h at RT with shaking using 150 μl of Odyssey Blocking Buffer (LI-COR #927-40000). The block was removed by aspiration and 50 μl of diluted primary Ab mix was added. The plates were incubated at 4° C. overnight with gentle shaking. The plates were washed five times with 200 μl of PBST (1×PBS, Sigma P3813-10PK, and 0.1% Tween-20, Sigma P9416-50ML) for 5 min each with shaking 50 μl of diluted secondary Ab mix was added and the plates incubated at RT for 1 h with shaking. The plates were washed 5× with 200 μl of PBST for 5 min each with shaking. […]

[1] = tested on: epithelial carcinoma A431 cell line; experiment: MTT Cell Proliferation Assay, A431 cells; type: cell-based; details: for IC50: first value of cell, read-out: MTT Assay IC50(A431/MDBK): A431; for MTT Assay IC50(A431/MDBK): ratio in parentheses: ratio MDBK IC50 / A431 IC50 (selectivity)
Description: (§1) The following example describes the MTT Cell Proliferation Assay.
(§2) The MTT Cell Proliferation Assay is a colorimetric assay system that measures the reduction of the tetrazolium salt MTT (3-(4,5-dimethylthiazol-2-yl)-2,5-diphenyltetrazolium bromide) into insoluble formazan crystals, produced by the mitochondria of viable cells. […] The color can then be quantified by spectrophotometric means. Among the applications for the method are drug sensitivity, cytotoxicity, response to growth factors, and cell activation. The reduction of tetrazolium salts is now recognized as a safe, accurate alternative to radiometric testing.
(§3) Two replicates on each cell plate and 2 duplicate plates gave 4 individual replicates of each concentration, in each cell line. Concentrations were diluted in 100% DMSO from 25 mM stocks.
(§4) Twelve 96 well plates of each cell line were plated. Plating was done by dislodging cells as in passage protocol, counting on a hemocytometer, re-suspending in standard growth media, and plating using a multichannel pippetor.
(§5) 16 μl of 25 mM stock+34 μl DMSO=8 mM starting concentrations, and serial diluted as with test compounds in same plate. […] Two replicates of each concentrations was run on each cell plate. All compound addition and cell treatments were done using aseptic technique under a laminar flow aseptic hood.
(§6) Control: 0.5% DMSO in treatment media was used as the control.
(§7) MTT dye (Thiazolyl Blue Tetrazolium Bromide, Sigma cat #M5655) stock was prepared in bulk and stored at 4° C. for use: 5 mgs/ml sterile PDS, shielded from light. 4 ul of this stock per 100 uls treatment media per well was used.
(§8) Plates were incubated overnight prior to treatment, with treatment day=Day 0. Compound treatments were prepared prior to washing cells to minimize time cells were dry at room temperature after final aspiration. Compounds were diluted in 100% DMSO in 96 well polypropylene plates: 40 μl 25 mM stock+10 μl DMSO=20 mM; 20 μl of 20 mM+30 μl DMSO=8 mM; 20 μl of 8 mM+30 μl DMSO=3.2 mM; 20 μl of 3.2 mM+30 μl DMSO=1.3 mM; 20 μl of 1.3 mM+30 μl DMSO=0.51 mM.
(§9) 5.0 μl/ml were added to treatment media, in sterile, 2.2 ml deep well plates=0.5% dmso final. Ten μl of each dmso concentration was added to 2.0 ml of treatment media and then mixed using a 1200 μl multichannel pipettor. Cell plates were treated from the deep well plates. Treatment media was standard growth media containing 0.5% FBS and standard additions. This reduced FBS concentration allowed for a slower growth rate in cells.
(§10) Media was aspirated from cell plates, and washed with 200 μl/well sterile PBS. Aspirated PBS wash, and cell plates were treated with 200 μl of compound/treatment media per well, and incubated at 37° C., 5% CO2 for 3 days.
(§11) Prior to harvesting, visual observations were made under an inverted microscope. Plates were harvested by: aspirating the growth media; adding back MTT dye/100 μl treatment media; and incubating plates at 37° C. for 1 hour. MTT dye was aspirated. 100 μl/well dmso was added, and then shaken on a Bellco plate shaker for 5 minutes, at 4.5 setting.
(§12) Plates were read in a Tecan Sunrize UV plate reader, at 560 nm. Settings: Read mode, Outside Normal 2 sec; Shake settle time 3 sec. Data is reported as % inhibition, calculated for individual plates using control values from that plate.

MDBK line = experiment: MTT Cell Proliferation Assay, MDBK cells; type: cell-based, bovine; details: MDBK cells, second value of cell; for IC50: read-out: MTT Assay IC50(A431/MDBK): MDBK
Description: as §1, §2, §3, §4, §5, §6, §7, §8, §9, §10, §11, §12

[2] = Homo sapiens, A-431, A431 cells

| SMILES | ICW Avg (EGFR) | ICW 1 (EGFR) | ICW 2 (EGFR) | IC50 [1, 2] [µM] | MTT Assay IC50(A431/MDBK): ratio in parentheses [1] | IC50 ([1]; A431 cells) [µM] | MTT Assay IC50(A431/MDBK): MDBK (MDBK line) | IC50 (MDBK line; Bos taurus, MDBK) [µM] | IC50 (MDBK line) [µM] |
| --- | --- | --- | --- | --- | --- | --- | --- | --- | --- |
| Cc1nc(Nc2nc(=O)c3c([nH]2)CCCC3)nc2c(C)cccc12 [11436 + TFA] | 59.65 | 59.16 | 60.14 | 5.86 | 0.48 |  |  | 2.8 |  |
| COc1ccc(-c2cc(=O)[nH]c(Nc3nc(C)c4ccccc4n3)n2)cc1OC [11471 + TFA] | 39.92 | 37.43 | 42.40 | 36.9 | 1.20 |  |  | 44.1 |  |
| COCc1cc(=O)nc(Nc2nc(C)c3cc(C)cc(C)c3n2)[nH]1 [11625 + TFA] | 25.22 | 31.51 | 18.94 | 49 | 0.71 |  |  | 34.7 |  |
| Cc1ccc(C2CC(=O)c3cnc(Nc4nc(C)c5cc(C)c(C)cc5n4)nc3C2)cc1 (centres unmarked) [11670 + TFA] | 25.27 | 34.91 | 15.63 | 13.5 | 1.80 |  |  | 24.3 |  |
| CCOc1ccc2nc(Nc3ncc4c(n3)CC(c3ccco3)CC4=O)nc(C)c2c1 (centres unmarked) [11674 + TFA] | 25.04 | 31.91 | 18.16 | 20.2 | 1.76 |  |  | 35.5 |  |
| CCc1ccc2nc(Nc3ncc4c(n3)CC(c3cccc(Cl)c3)CC4=O)nc(C)c2c1 (centres unmarked) [11680 + TFA] | 27.24 | 32.59 | 21.89 | 21.9 | 0.80 |  |  | 17.4 |  |
| O=c1[nH]c(Nc2nc(-c3ccccc3)c3cc(Cl)ccc3n2)nc2ccccc12 [11706 + TFA] | 34.32 | 37.65 | 30.99 | 17.6 | 1.45 |  |  | 25.4 |  |
| Cc1ccc(SCc2cc(=O)[nH]c(Nc3nc(C)c4cccc(C)c4n3)n2)cc1 [11707 + TFA] | 40.51 | 43.70 | 37.31 | 15.7 |  |  | non-convergent |  |  |
| Cc1ccc2c(C)nc(Nc3nc(C)c(CCC(C)C)c(=O)[nH]3)nc2c1 [11712 + TFA] | 39.53 | 32.96 | 46.11 | 18.7 | 0.92 |  |  | 17.3 |  |
| Cc1ccc(SCc2cc(=O)[nH]c(Nc3nc(C)c4cc(C)cc(C)c4n3)n2)cc1 [11727 + TFA] | 31.05 | 37.00 | 25.09 | 35.1 | 0.46 |  |  | 16.1 |  |

Continued, in another order:

| ICW Avg (EGFR) | ICW 1 (EGFR) | ICW 2 (EGFR) | IC50 [1, 2] [µM] | MTT Assay IC50(A431/MDBK): ratio in parentheses [1] | IC50 ([1]; A431 cells) [µM] | MTT Assay IC50(A431/MDBK): MDBK (MDBK line) | SMILES | IC50 (MDBK line; Bos taurus, MDBK) [µM] | IC50 (MDBK line) [µM] |
| --- | --- | --- | --- | --- | --- | --- | --- | --- | --- |
| 60.28 | 59.54 | 61.02 |  | 4.70 | 9.61 |  | Cc1nc(Nc2nc(=O)cc(CSc3ccc(Cl)cc3)[nH]2)nc2ccccc12 [11445 + TFA] | 45.1 |  |
| 70.65 | 67.84 | 73.46 | 11.3 | 0.86 |  |  | COc1cccc2c(C)nc(Nc3nc4c(c(=O)[nH]3)CCCC4)nc12 [11484 + TFA] | 9.72 |  |
| 33.45 | 32.64 | 34.26 | 6.73 | 0.94 |  |  | COc1cccc(-c2cc(=O)[nH]c(Nc3nc(C)c4cccc(OC)c4n3)n2)c1 [11513 + TFA] | 6.32 |  |
| 51.10 | 47.93 | 54.26 |  | 1.00 | 47.3 |  | Cc1nc(Nc2nc(=O)cc(CSc3ccc(Cl)cc3)[nH]2)nc2ccccc12 [11583 + TFA] |  | 47.3 |
| 25.83 | 31.02 | 20.64 | 12.6 | 0.70 |  |  | Cc1nc(Nc2ncc3c(n2)CC(c2ccco2)CC3=O)nc2ccccc12 (centres unmarked) [11679 + TFA] | 8.73 |  |
| 29.86 | 30.46 | 29.26 | 5.47 | 0.75 |  |  | Cc1cc2nc(Nc3ncc4c(n3)CC(c3cccs3)CC4=O)nc(C)c2cc1C (centres unmarked) [11681 + TFA] | 4.08 |  |
